Here are results for 22 compounds from US9951077B2, “Aminopyridazinone compounds as protein kinase inhibitors” (ETERNITY BIOSCIENCE INC., priority 2014, dated 2018).

Where only a bound is given, the exact number is not on record here.

Btk, sequence (Q06187 whole entry): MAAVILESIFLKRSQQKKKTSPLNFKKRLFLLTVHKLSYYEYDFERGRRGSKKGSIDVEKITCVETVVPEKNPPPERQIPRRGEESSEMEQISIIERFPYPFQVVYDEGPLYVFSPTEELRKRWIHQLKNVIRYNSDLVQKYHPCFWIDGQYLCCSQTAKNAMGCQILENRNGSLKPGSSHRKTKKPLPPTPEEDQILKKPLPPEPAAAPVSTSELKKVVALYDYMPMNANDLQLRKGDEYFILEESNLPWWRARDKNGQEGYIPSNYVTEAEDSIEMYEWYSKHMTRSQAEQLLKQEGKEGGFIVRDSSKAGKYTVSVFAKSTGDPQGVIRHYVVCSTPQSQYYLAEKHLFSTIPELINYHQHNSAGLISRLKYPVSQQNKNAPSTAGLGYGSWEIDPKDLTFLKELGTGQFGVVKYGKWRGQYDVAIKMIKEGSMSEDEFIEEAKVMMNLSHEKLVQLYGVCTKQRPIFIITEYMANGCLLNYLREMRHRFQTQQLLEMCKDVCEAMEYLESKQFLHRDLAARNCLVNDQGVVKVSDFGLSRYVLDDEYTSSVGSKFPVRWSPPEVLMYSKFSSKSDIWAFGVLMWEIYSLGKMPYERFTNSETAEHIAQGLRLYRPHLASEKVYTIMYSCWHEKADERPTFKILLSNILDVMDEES

This experiment concerns the target Btk (Homo sapiens (Human), UniProt Q06187). Briefly: Btk kinase assay (ADP-Glo). The class given is biochemical. Conditions: ATP 1.2 μM, 60 minutes, room temperature; read-out: BTK enzyme IC50. Put shortly:
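Recombinant human Btk (2 ng/μl) with poly GT peptide (0.3 μM), ATP (1.2 μM), MnCl2 (1.4 mM) and DTT (40 nM), 60 min at room temperature (22±1° C.). ADP formed was read by ADP-Glo luminescence after ATP depletion. IC50 from log concentration versus percent inhibition relative to DMSO vehicle.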
Background: ADP-Glo turns the ADP formed in a reaction into a luminescent signal.
As for `C=CC(=O)N1CC[C@H](n2cc(-c3ccc(Oc4ccccc4)cc3)c3c(N)n[nH]c(=O)c32)C1` [Example 3, 4-amino-3-(4-phenoxyphenyl)-1-[(3S)-1-prop-2-enoylpyrrolidin-3-yl]-6H-pyrrolo[2,3-d]pyridazin-7-one], the IC50 was in the range of 10 to 1000 nM.

`CC#CC(=O)N1CC[C@@H](n2cc(-c3ccc(Oc4ccccc4)cc3)c3c(N)n[nH]c(=O)c32)C1` [Example 97, (R)-4-amino-1-(1-(but-2-ynoyl)pyrrolidin-3-yl)-3-(4-phenoxyphenyl)-1H-pyrrolo[2,3-d]pyridazin-7(6H)-one]: the IC50 lay in the range of 10 to 1000 nM.

As to `N#C/C(=C\C1CC1)C(=O)N1CCC[C@@H](n2cc(-c3ccc(Oc4ccccc4)cc3)c3c(N)n[nH]c(=O)c32)C1` [Example 50, (E)-2-[(3R)-3-[4-amino-7-oxo-3-(4-phenoxyphenyl)-6H-pyrrolo[2,3-d]pyridazin-1-yl]piperidine-1-carbonyl]-3-cyclopropyl-prop-2-enenitrile], the IC50 lay within 10 to 1000 nM.

Consider `N#CN1CCCC(n2cc(-c3ccc(Oc4ccccc4F)cc3)c3c(N)n[nH]c(=O)c32)C1` (stereo not shown) [Example 108, 3-(4-amino-3-(4-(2-fluorophenoxy)phenyl)-7-oxo-6,7-dihydro-1H-pyrrolo[2,3-d]pyridazin-1-yl)piperidine-1-carbonitrile], for which the IC50 was ≤ 10 nM.

Consider `C=CC(=O)N1CCCC(n2cc(-c3ccc(Oc4ccc(F)cc4)cc3)c3c(N)n[nH]c(=O)c32)C1` (stereo not shown) [Example 60, 1-(1-acryloylpiperidin-3-yl)-4-amino-3-(4-(4-fluorophenoxy)phenyl)-1H-pyrrolo[2,3-d]pyridazin-7(6H)-one], for which the IC50 lay within 10 to 1000 nM.

As for `C/C=C/C(=O)N1CCC[C@@H](n2cc(-c3ccc(Oc4ccccc4)cc3)c3c(N)n[nH]c(=O)c32)C1` [Example 25, 4-amino-1-[(3R)-1-[(E)-but-2-enoyl]-3-piperidyl]-3-(4-phenoxyphenyl)-6H-pyrrolo[2,3-d]pyridazin-7-one], the IC50 was in the range of 10 to 1000 nM.

Take `C=CC(=O)N1CCC[C@@H](n2nc(-c3ccc(Oc4ccccc4)cc3)c3c(N)n[nH]c(=O)c32)C1` [Example 110, (R)-1-(1-acryloylpiperidin-3-yl)-4-amino-3-(4-phenoxyphenyl)-1H-pyrazolo[3,4-d]pyridazin-7(6H)-one]: the IC50 lay in the range of 10 to 1000 nM.

Consider `Nc1n[nH]c(=O)c2c1c(-c1ccc(Oc3ccccc3)cc1)cn2[C@@H]1CCCN(C(=O)/C=C/CN2CCCC2)C1` [Example 34, 4-amino-3-(4-phenoxyphenyl)-1-[(3R)-1-[(E)-4-pyrrolidin-1-ylbut-2-enoyl]-3-piperidyl]-6H-pyrrolo[2,3-d]pyridazin-7-one], for which the IC50 is ≤ 10 nM.

As for `C=CC(=O)N1CC[C@@H](n2cc(-c3ccc(Oc4ccccc4F)cc3)c3c(N)n[nH]c(=O)c32)C1` [Example 106, (R)-1-(1-acryloylpyrrolidin-3-yl)-4-amino-3-(4-(2-fluorophenoxy)phenyl)-1H-pyrrolo[2,3-d]pyridazin-7(6H)-one], the IC50 was 10 to 1000 nM.

For the compound `CN(C)C/C=C/C(=O)N1CC[C@@H](n2cc(-c3ccc(Oc4ccccc4)cc3)c3c(N)n[nH]c(=O)c32)C1` [Example 39, 4-amino-1-[(3R)-1-[(E)-4-(dimethylamino)but-2-enoyl]pyrrolidin-3-yl]-3-(4-phenoxyphenyl)-6H-pyrrolo[2,3-d]pyridazin-7-one], the IC50 was ≤ 10 nM.

`CN(C)C/C=C/C(=O)N1CCCC(n2cc(-c3ccc(Oc4ccc(Cl)cc4)cc3)c3c(N)n[nH]c(=O)c32)C1` (stereo not shown) [Example 65, 4-amino-3-[4-(4-chlorophenoxy)phenyl]-1-[1-[(E)-4-(dimethylamino)but-2-enoyl]-3-piperidyl]-6H-pyrrolo[2,3-d]pyridazin-7-one]: the IC50 fell in the range of 10 to 1000 nM.

For `CN(C)C/C=C/C(=O)N1CCC[C@@H]1Cn1cc(-c2ccc(Oc3ccccc3)cc2)c2c(N)n[nH]c(=O)c21` [Example 42, 4-amino-1-[[(2R)-1-[(E)-4-(dimethylamino)but-2-enoyl]pyrrolidin-2-yl]methyl]-3-(4-phenoxyphenyl)-6H-pyrrolo[2,3-d]pyridazin-7-one], the IC50 lay within 1000 to 100000 nM.

In the case of `CN(C)C/C=C/C(=O)N1C[C@H](n2cc(-c3ccc(Oc4ccccc4)cc3)c3c(N)n[nH]c(=O)c32)CC(F)(F)C1` [Example 49, 4-amino-1-[(3R)-1-[(E)-4-(dimethylamino)but-2-enoyl]-5,5-difluoro-3-piperidyl]-3-(4-phenoxyphenyl)-6H-pyrrolo[2,3-d]pyridazin-7-one], the IC50 was 10 to 1000 nM.

Turning to `Nc1n[nH]c(=O)c2c1c(-c1ccc(Oc3ccccc3)cc1)cn2[C@@H]1CCCN(C(=O)/C=C/CNC2CC2)C1` [Example 28, 4-amino-1-[(3R)-1-[(E)-4-(cyclopropylamino)but-2-enoyl]-3-piperidyl]-3-(4-phenoxyphenyl)-6H-pyrrolo[2,3-d]pyridazin-7-one], the IC50 is ≤ 10 nM.

`C=CC(=O)N1CCC[C@@H](n2cc(-c3ccc(Oc4ccccc4)cc3F)c3c(N)n[nH]c(=O)c32)C1` [Example 76, (R)-1-(1-acryloylpiperidin-3-yl)-4-amino-3-(2-fluoro-4-phenoxyphenyl)-1H-pyrrolo[2,3-d]pyridazin-7(6H)-one]: the IC50 was 10 to 1000 nM.

Take `C=CC(=O)N1CCCC(n2cc(-c3ccc(Oc4cccc(Cl)c4)cc3)c3c(N)n[nH]c(=O)c32)C1` (stereo not shown) [Example 66, 1-(1-acryloylpiperidin-3-yl)-4-amino-3-(4-(3-chlorophenoxy)phenyl)-1H-pyrrolo[2,3-d]pyridazin-7(6H)-one]: the half-maximal inhibitory concentration (IC50) lay in the range of 10 to 1000 nM.

In the case of `CN(C)C/C=C/C(=O)N1CCCC(n2cc(-c3ccc(Oc4ccccc4)cc3)c3c(N)n[nH]c(=O)c32)C1` (stereo not shown) [Example 38, 4-amino-1-[1-[(E)-4-(dimethylamino)but-2-enoyl]-3-piperidyl]-3-(4-phenoxyphenyl)-6H-pyrrolo[2,3-d]pyridazin-7-one], the IC50 was ≤ 10 nM.

For the compound `C=CC(=O)N1CCC[C@@H](n2cc(-c3ccc(Oc4ccccc4)c(F)c3)c3c(N)n[nH]c(=O)c32)C1` [Example 74, (R)-1-(1-acryloylpiperidin-3-yl)-4-amino-3-(3-fluoro-4-phenoxyphenyl)-1H-pyrrolo[2,3-d]pyridazin-7(6H)-one], the IC50 fell in the range of 10 to 1000 nM.

In the case of `CN(C)C/C=C/C(=O)N1CCC[C@@H](n2cc(-c3ccc(Oc4ccccc4)cc3)c3c(N)n[nH]c(=O)c32)C1` [Example 26, 4-amino-1-[(3R)-1-[(E)-4-(dimethylamino)but-2-enoyl]-3-piperidyl]-3-(4-phenoxyphenyl)-6H-pyrrolo[2,3-d]pyridazin-7-one], the IC50 is ≤ 10 nM.

For the compound `C=CC(=O)N1CCC(n2cc(-c3ccc(Oc4ccccc4)cc3)c3c(N)n[nH]c(=O)c32)CC1` [Example 9, 4-amino-3-(4-phenoxyphenyl)-1-(1-prop-2-enoyl-4-piperidyl)-6H-pyrrolo[2,3-d]pyridazin-7-one], the IC50 lay within 1000 to 100000 nM.

For the compound `CC(C)N(C)C/C=C/C(=O)N1CCC[C@@H](n2cc(-c3ccc(Oc4ccccc4)cc3)c3c(N)n[nH]c(=O)c32)C1` [Example 16, 4-amino-1-[(3R)-1-[(E)-4-[isopropyl(methyl)amino]but-2-enoyl]-3-piperidyl]-3-(4-phenoxyphenyl)-6H-pyrrolo[2,3-d]pyridazin-7-one], the IC50 is ≤ 10 nM.

For the compound `N#CCC(=O)N1CCC[C@@H](n2cc(-c3ccc(Oc4ccccc4)cc3)c3c(N)n[nH]c(=O)c32)C1` [Example 24, 3-[(3R)-3-[4-amino-7-oxo-3-(4-phenoxyphenyl)-6H-pyrrolo[2,3-d]pyridazin-1-yl]-1-piperidyl]-3-oxo-propanenitrile], the IC50 was in the range of 10 to 1000 nM.

The IC50 is the concentration needed to halve the response being measured.
